Measured values as given in the kinase profiling compilation of Christmann-Franck et al. (2016).

Legend:
Experiment in all cases: KINOMEscan competition binding
Details in all cases: compound 10.0 µM
CDC42BPB (human) = CDC42BPB (human) (UniProt Q9Y5S2)
MAP4K2 (human) = MAP4K2 (human) (UniProt Q12851)
ALK (human) = ALK (human) (UniProt Q9UM73)
EPHA1 (human) = EPHA1 (human) (UniProt P21709)
PAK6 (human) = PAK6 (human) (UniProt Q9NQU5)
CAMKK1 (human) = CAMKK1 (human) (UniProt Q8N5S9)
EIF2AK2 (human) = EIF2AK2 (human) (UniProt P19525)
MAP3K7 (human) = MAP3K7 (human) (UniProt O43318)
PRKAA2 (human) = PRKAA2 (human) (UniProt P54646)
BRSK1 (human) = BRSK1 (human) (UniProt Q8TDC3)
CDK5 (human) = CDK5 (human) (UniProt Q00535)
CAMK2G (human) = CAMK2G (human) (UniProt Q13555)
PRKACB (human) = PRKACB (human) (UniProt P22694)
CLK4 (human) = CLK4 (human) (UniProt Q9HAZ1)
[1] = target: TYK2 JH1 catalytic (human) (UniProt P29597)
STK17A (human) = STK17A (human) (UniProt Q9UEE5)
MAP3K12 (human) = MAP3K12 (human) (UniProt Q12852)
CDK15 (human) = CDK15 (human) (UniProt Q96Q40)
FGFR3 (human) = FGFR3 (human) (UniProt P22607)
EPHA4 (human) = EPHA4 (human) (UniProt P54764)
CSF1R (human) = CSF1R (human) (UniProt P07333)
[2] = target: TYK2 JH2 pseudokinase (human) (UniProt P29597)
AURKA (human) = AURKA (human) (UniProt O14965)
SRPK1 (human) = SRPK1 (human) (UniProt Q96SB4)
RIPK2 (human) = RIPK2 (human) (UniProt O43353)
RIPK4 (human) = RIPK4 (human) (UniProt P57078)
[3] = target: JAK3 JH1 catalytic (human) (UniProt P52333)
ULK2 (human) = ULK2 (human) (UniProt Q8IYT8)
KDR (human) = KDR (human) (UniProt P35968)
CAMK2B (human) = CAMK2B (human) (UniProt Q13554)
RPS6KA1 KD2 (human) = RPS6KA1 KD2 (human) (UniProt Q15418)
PIK3CD (human) = PIK3CD (human) (UniProt O00329)
ACVR1B (human) = ACVR1B (human) (UniProt P36896)
SIK2 (human) = SIK2 (human) (UniProt Q9H0K1)
EPHB4 (human) = EPHB4 (human) (UniProt P54760)
CDC42BPG (human) = CDC42BPG (human) (UniProt Q6DT37)
LCK (human) = LCK (human) (UniProt P06239)
PLK4 (human) = PLK4 (human) (UniProt O00444)
FLT3 (human) = FLT3 (human) (UniProt P36888)
CSNK1A1L (human) = CSNK1A1L (human) (UniProt Q8N752)
Chain of CSNK1A1L (human) (Q8N752 whole entry, looked up): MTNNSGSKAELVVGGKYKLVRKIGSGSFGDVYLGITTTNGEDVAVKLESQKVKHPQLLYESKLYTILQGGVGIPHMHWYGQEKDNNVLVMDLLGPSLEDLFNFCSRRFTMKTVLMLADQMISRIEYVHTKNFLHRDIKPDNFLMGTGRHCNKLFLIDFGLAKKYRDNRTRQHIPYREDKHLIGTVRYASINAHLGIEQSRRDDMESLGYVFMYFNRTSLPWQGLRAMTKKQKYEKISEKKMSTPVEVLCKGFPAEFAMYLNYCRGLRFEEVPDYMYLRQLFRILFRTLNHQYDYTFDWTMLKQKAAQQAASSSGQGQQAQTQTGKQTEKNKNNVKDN

Chain of CAMK2G (human) (Q13555 whole entry, looked up): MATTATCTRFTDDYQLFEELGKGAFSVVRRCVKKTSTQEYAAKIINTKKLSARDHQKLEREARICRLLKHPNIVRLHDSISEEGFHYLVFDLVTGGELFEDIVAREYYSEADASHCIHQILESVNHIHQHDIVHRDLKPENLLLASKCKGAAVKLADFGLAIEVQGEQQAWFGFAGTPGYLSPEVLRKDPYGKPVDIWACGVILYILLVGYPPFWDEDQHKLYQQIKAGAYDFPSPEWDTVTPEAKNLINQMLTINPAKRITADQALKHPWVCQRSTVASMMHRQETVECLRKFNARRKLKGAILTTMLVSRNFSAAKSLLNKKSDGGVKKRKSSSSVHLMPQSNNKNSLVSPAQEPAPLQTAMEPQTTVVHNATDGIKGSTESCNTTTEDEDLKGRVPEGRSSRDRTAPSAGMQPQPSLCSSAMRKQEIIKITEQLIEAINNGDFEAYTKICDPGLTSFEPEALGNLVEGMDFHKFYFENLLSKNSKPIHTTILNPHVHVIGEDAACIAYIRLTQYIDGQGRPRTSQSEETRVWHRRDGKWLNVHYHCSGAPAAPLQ
Chain of TYK2 JH1 catalytic (human) (P29597 whole entry, looked up): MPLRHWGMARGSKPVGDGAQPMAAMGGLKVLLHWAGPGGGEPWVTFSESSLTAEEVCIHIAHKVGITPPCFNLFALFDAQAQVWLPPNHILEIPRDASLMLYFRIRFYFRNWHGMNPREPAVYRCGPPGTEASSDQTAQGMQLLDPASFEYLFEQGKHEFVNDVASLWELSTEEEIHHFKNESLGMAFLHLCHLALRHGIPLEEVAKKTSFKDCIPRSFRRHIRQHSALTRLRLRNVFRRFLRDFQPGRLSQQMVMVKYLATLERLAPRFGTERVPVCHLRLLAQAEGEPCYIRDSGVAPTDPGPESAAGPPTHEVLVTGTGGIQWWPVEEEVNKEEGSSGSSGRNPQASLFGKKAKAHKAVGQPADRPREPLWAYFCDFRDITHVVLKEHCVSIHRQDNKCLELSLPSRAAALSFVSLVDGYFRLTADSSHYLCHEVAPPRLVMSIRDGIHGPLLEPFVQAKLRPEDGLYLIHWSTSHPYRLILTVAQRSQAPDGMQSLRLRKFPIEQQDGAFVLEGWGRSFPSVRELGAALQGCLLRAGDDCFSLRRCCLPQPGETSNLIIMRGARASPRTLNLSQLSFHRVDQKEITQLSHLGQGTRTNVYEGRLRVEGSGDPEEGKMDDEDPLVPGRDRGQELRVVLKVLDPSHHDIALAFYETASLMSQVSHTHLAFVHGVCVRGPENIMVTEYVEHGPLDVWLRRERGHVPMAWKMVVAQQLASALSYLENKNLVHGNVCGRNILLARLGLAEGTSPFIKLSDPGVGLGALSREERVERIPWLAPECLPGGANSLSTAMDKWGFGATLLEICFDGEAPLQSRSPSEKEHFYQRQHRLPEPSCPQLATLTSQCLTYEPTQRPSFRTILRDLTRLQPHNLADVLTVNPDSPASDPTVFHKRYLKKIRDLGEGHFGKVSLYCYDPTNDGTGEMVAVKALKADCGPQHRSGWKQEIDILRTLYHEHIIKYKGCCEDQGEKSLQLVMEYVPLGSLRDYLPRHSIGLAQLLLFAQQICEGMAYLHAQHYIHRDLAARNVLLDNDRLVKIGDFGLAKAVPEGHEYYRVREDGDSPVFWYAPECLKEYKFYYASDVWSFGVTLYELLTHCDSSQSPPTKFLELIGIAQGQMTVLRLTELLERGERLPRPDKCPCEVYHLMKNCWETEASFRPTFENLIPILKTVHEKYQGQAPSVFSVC
Chain of TYK2 JH2 pseudokinase (human) (P29597 whole entry, looked up): as above
Chain of LCK (human) (P06239 whole entry, looked up): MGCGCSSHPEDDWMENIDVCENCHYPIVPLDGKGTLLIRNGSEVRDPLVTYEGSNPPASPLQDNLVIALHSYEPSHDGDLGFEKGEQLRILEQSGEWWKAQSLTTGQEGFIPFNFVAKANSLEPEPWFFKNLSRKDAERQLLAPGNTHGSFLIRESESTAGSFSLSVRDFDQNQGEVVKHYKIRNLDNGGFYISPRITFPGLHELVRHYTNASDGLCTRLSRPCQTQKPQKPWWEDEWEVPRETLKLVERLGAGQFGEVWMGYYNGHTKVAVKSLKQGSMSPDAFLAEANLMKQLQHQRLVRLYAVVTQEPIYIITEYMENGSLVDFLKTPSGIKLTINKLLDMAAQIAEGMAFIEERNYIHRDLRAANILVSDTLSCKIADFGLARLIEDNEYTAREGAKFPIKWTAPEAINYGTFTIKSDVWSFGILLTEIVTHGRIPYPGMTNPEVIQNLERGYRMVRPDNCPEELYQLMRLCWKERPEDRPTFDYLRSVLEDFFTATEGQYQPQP
Chain of CDK5 (human) (Q00535 whole entry, looked up): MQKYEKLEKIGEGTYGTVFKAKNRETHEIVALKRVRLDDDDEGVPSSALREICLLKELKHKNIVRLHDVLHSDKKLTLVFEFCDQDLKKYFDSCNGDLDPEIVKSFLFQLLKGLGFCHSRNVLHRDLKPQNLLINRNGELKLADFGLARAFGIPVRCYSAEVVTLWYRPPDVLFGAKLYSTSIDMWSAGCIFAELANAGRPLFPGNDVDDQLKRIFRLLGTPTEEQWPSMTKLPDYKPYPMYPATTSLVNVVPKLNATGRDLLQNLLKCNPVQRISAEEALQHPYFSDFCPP
Chain of FLT3 (human) (P36888 whole entry, looked up): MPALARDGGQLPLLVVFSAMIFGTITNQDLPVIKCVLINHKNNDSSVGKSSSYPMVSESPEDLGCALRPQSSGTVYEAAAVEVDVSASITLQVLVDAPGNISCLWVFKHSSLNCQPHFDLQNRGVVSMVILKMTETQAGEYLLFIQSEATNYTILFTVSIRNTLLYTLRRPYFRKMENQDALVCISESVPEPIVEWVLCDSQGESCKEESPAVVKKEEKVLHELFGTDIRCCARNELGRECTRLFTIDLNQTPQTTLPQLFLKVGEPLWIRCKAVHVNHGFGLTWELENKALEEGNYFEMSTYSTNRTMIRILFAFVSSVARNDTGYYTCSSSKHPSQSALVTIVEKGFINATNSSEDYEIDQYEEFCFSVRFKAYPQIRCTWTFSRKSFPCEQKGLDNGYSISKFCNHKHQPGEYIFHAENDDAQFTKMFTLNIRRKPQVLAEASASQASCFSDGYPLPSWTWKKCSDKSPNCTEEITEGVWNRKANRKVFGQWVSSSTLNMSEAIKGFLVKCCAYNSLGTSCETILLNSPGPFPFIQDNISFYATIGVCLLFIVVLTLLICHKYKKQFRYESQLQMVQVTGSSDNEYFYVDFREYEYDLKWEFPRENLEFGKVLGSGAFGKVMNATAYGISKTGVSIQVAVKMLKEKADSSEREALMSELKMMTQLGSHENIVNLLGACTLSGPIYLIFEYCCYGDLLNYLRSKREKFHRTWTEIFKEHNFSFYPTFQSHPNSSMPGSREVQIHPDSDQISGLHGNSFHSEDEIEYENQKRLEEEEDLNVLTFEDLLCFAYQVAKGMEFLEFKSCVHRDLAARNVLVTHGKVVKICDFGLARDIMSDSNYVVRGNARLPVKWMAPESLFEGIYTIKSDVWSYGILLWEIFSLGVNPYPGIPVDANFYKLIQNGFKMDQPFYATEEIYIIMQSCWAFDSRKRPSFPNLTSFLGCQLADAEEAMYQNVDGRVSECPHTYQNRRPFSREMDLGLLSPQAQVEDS
Chain of MAP3K7 (human) (O43318 whole entry, looked up): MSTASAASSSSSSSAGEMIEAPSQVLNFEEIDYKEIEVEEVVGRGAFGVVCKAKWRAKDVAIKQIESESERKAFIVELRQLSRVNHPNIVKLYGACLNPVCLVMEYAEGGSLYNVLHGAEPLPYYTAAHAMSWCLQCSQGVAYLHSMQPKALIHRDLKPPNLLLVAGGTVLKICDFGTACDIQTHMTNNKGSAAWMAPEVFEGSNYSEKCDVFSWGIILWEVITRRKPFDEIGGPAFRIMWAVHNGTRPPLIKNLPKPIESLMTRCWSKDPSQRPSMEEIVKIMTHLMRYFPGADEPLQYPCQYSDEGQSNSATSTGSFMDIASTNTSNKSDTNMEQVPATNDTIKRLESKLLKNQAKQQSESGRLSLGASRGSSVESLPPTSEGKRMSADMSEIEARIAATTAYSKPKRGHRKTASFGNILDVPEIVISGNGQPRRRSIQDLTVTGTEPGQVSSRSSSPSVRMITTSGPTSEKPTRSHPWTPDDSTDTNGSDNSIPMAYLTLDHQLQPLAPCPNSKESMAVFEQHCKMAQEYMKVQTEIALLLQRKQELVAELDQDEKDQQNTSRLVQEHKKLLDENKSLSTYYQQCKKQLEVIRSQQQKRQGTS
Chain of CLK4 (human) (Q9HAZ1 whole entry, looked up): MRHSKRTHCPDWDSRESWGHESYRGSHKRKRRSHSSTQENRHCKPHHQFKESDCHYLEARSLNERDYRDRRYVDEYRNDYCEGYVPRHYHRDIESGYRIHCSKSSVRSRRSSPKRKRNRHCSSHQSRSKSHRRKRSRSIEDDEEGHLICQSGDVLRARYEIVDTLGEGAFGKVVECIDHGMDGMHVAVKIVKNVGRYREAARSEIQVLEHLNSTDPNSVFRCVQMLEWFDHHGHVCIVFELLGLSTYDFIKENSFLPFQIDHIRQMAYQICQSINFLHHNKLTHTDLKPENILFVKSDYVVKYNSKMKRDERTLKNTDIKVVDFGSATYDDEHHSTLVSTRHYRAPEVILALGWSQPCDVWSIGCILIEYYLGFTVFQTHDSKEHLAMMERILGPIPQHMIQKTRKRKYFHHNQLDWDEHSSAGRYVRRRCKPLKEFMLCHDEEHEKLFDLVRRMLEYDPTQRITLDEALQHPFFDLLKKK

SMILES | kinase still bound, per cent of control (CDC42BPB (human)) [%] | kinase still bound, per cent of control (MAP4K2 (human)) [%] | kinase still bound, per cent of control (ALK (human)) [%] | kinase still bound, per cent of control (EPHA1 (human)) [%] | kinase still bound, per cent of control (PAK6 (human)) [%] | kinase still bound, per cent of control (CAMKK1 (human)) [%] | kinase still bound, per cent of control (EIF2AK2 (human)) [%] | kinase still bound, per cent of control (MAP3K7 (human)) [%] | kinase still bound, per cent of control (PRKAA2 (human)) [%] | kinase still bound, per cent of control (BRSK1 (human)) [%] | kinase still bound, per cent of control (CDK5 (human)) [%] | kinase still bound, per cent of control (CAMK2G (human)) [%] | kinase still bound, per cent of control (PRKACB (human)) [%] | kinase still bound, per cent of control (CLK4 (human)) [%] | kinase still bound, per cent of control [1] [%] | kinase still bound, per cent of control (STK17A (human)) [%] | kinase still bound, per cent of control (MAP3K12 (human)) [%] | kinase still bound, per cent of control (CDK15 (human)) [%] | kinase still bound, per cent of control (FGFR3 (human)) [%] | kinase still bound, per cent of control (EPHA4 (human)) [%] | other results
COc1cc(C(=O)NC2CCN(C)CC2)ccc1Nc1ncc2c(n1)N(C1CCCC1)CCC(=O)N2C(C)C | 100 | 100 | 100 | 100 | 100 | 100 | 100 | 100 | 100 | 100 | 100 | 100 | 100 | 100 | 100 | 100 | 100 | 100 | 100 | 100 | kinase still bound, per cent of control (CSF1R (human)): 100%; kinase still bound, per cent of control [2]: 100%; kinase still bound, per cent of control (AURKA (human)): 100%; kinase still bound, per cent of control (SRPK1 (human)): 0%; kinase still bound, per cent of control (RIPK2 (human)): 100%; kinase still bound, per cent of control (RIPK4 (human)): 100%; kinase still bound, per cent of control [3]: 100%; kinase still bound, per cent of control (ULK2 (human)): 100%; kinase still bound, per cent of control (KDR (human)): 100%; kinase still bound, per cent of control (CAMK2B (human)): 100%; kinase still bound, per cent of control (RPS6KA1 KD2 (human)): 100%; kinase still bound, per cent of control (PIK3CD (human)): 100%; kinase still bound, per cent of control (ACVR1B (human)): 100%; kinase still bound, per cent of control (SIK2 (human)): 100%; kinase still bound, per cent of control (EPHB4 (human)): 100%; kinase still bound, per cent of control (CDC42BPG (human)): 100%; kinase still bound, per cent of control (LCK (human)): 100%; kinase still bound, per cent of control (PLK4 (human)): 100%; kinase still bound, per cent of control (FLT3 (human)): 100%; kinase still bound, per cent of control (CSNK1A1L (human)): 100%
C[C@@H](Oc1cc(-n2cnc3ccc(CN4CCN(C)CC4)cc32)sc1C(N)=O)c1ccccc1C(F)(F)F | 100 | 24 | 100 | 94 | 98 | 99 | 76 | 48 | 80 | 42 | 100 | 15 | 89 | 59 | 81 | 100 | 57 | 67 | 80 | 100 | kinase still bound, per cent of control (CSF1R (human)): 77%; kinase still bound, per cent of control [2]: 100%; kinase still bound, per cent of control (AURKA (human)): 100%; kinase still bound, per cent of control (SRPK1 (human)): 46%; kinase still bound, per cent of control (RIPK2 (human)): 92%; kinase still bound, per cent of control (RIPK4 (human)): 52%; kinase still bound, per cent of control [3]: 10%; kinase still bound, per cent of control (KDR (human)): 100%; kinase still bound, per cent of control (CAMK2B (human)): 19%; kinase still bound, per cent of control (RPS6KA1 KD2 (human)): 71%; kinase still bound, per cent of control (PIK3CD (human)): 14%; kinase still bound, per cent of control (ACVR1B (human)): 97%; kinase still bound, per cent of control (SIK2 (human)): 61%; kinase still bound, per cent of control (EPHB4 (human)): 100%; kinase still bound, per cent of control (CDC42BPG (human)): 100%; kinase still bound, per cent of control (LCK (human)): 70%; kinase still bound, per cent of control (PLK4 (human)): 97%; kinase still bound, per cent of control (FLT3 (human)): 11%; kinase still bound, per cent of control (CSNK1A1L (human)): 84%
Nc1ccc(-c2ccc3ncc4ccc(=O)n(-c5cccc(C(F)(F)F)c5)c4c3c2)cn1 | 96 | 68 | 100 | 93 | 100 | 94 | 70 | 48 | 95 | 88 | 92 | 95 | 85 | 34 | 85 | 100 | 100 | 94 | 75 | 100 | kinase still bound, per cent of control [2]: 6.3%; kinase still bound, per cent of control (AURKA (human)): 100%; kinase still bound, per cent of control (SRPK1 (human)): 100%; kinase still bound, per cent of control (RIPK2 (human)): 54%; kinase still bound, per cent of control (RIPK4 (human)): 100%; kinase still bound, per cent of control [3]: 100%; kinase still bound, per cent of control (ULK2 (human)): 95%; kinase still bound, per cent of control (KDR (human)): 100%; kinase still bound, per cent of control (CAMK2B (human)): 100%; kinase still bound, per cent of control (RPS6KA1 KD2 (human)): 100%; kinase still bound, per cent of control (PIK3CD (human)): 14%; kinase still bound, per cent of control (ACVR1B (human)): 96%; kinase still bound, per cent of control (SIK2 (human)): 73%; kinase still bound, per cent of control (EPHB4 (human)): 100%; kinase still bound, per cent of control (CDC42BPG (human)): 86%; kinase still bound, per cent of control (LCK (human)): 100%; kinase still bound, per cent of control (PLK4 (human)): 100%; kinase still bound, per cent of control (FLT3 (human)): 12%; kinase still bound, per cent of control (CSNK1A1L (human)): 89%
